Assay results taken from patent US20230381168A1, “ADJUNCTIVE THERAPY FOR DEPRESSION” (ANeuroTech IP BV, priority 2020, published 2023).
Entries after “also recorded” stand apart in the source; their conditions may differ.

Legend:
[1] = test system: patients suffering from moderate to severe MDD; experiment: double-blind randomized multi-centre study, reported side effects (treatment emergent adverse effects); type: in vivo, human
[2] = test system: subjects with a medical history of major depressive disorder and current insomnia; experiment: cognitive performance by Mini Mental State Examination (MMSE) in treated case subjects PT1-PT3; type: in vivo, human
Protocol: During the last three weeks of this period, the subject was treated with transcranial anodal direct current stimulation (tDCS) in daily sessions of 30 minutes in the morning every day of the week except Saturday and Sunday. The tDCS dose was 2 mA. The anode was placed over the left dorsolateral prefrontal cortex and the cathode was placed over the right dorsolateral prefrontal cortex. […] This combined treatment was continued for a following 3 weeks.

[3] = test system: subject with medical history of major depression and severe insomnia; experiment: sleep analysis with full PSG battery (EEG, EMG, infra-red video and sound): clinical relevant restlessness events; type: in vivo, human; conditions: PT1, after 3 weeks pipamperone 20 mg/day with tDCS
Source text: While during sleep the subject had no own noise making behaviour with an observed stable background noise level of +/−40 dB in the room, during these events the subject produced clear-cut enhancement of noise in the room with acute values of more than 50 dB combined with observable muscle activity (as observed by the EMG pattern), a state of being awake (as observed by the EEG) and an agitated behaviour (as observed by the clinical inspection infra-red video images).

[4] = test system: participants with major depressive disorder on continuing SSRI/SNRI; experiment: placebo-controlled crossover study, PROMIS cognitive function questionnaire (subjective cognitive function); type: in vivo, human
Protocol: Eligible participants were admitted to the study center on Day 1 of Period 1 for first dosing. […] The cognitive function was measured using the PROMIS cognitive function questionnaire, completed in the morning, midday and evening. […] A higher T-score reflects a better cognitive functioning of the participant. […] Positive responders were further evaluated for the key secondary objective.

[5] = test system: participants with major depressive disorder on continuing SSRI/SNRI; experiment: placebo-controlled crossover study, sleep quality questionnaire; type: in vivo, human; conditions: all participants; 14 mg
Protocol: Participants randomized to receive Treatment B were administered placebo containing drinkable water with […] flavor. Each study week the participants received 10 mL of their study medication in an amber glass bottle with dropper containing 200 droplets. […] The sleep quality of the participants was measured using a scale going from very bad (1) to excellent (5). This questionnaire was only completed in the morning.

[6] = test system: participants with major depressive disorder on continuing SSRI/SNRI; experiment: placebo-controlled crossover study, PROMIS Sleep-related impairments questionnaire; type: in vivo, human
Protocol: Participants randomized to receive Treatment B were administered placebo containing drinkable water with […] flavor. Each study week the participants received 10 mL of their study medication in an amber glass bottle with dropper containing 200 droplets. […] The sleep-related impairments were assessed using the PROMIS Sleep-related impairments questionnaire, completed in the morning, midday and evening. […] A higher T-score reflects more sleep-related impairments during the day.

[7] = test system: participants with major depressive disorder on continuing SSRI/SNRI; experiment: placebo-controlled crossover study, Karolinska Sleepiness Scale; type: in vivo, human
Protocol: Participants randomized to receive Treatment B were administered placebo containing drinkable water with […] flavor. Each study week the participants received 10 mL of their study medication in an amber glass bottle with dropper containing 200 droplets. […] The sleepiness of the participants was also be measured using the Karolinska Sleepiness Scale going from very sleepy, having great difficulty staying awake, fighting sleep (9) to extremely alert (1). This questionnaire was completed in the morning, midday and evening.

[8] = test system: participants with major depressive disorder on continuing SSRI/SNRI; experiment: placebo-controlled crossover study, mood questionnaire; type: in vivo, human
Protocol: Participants randomized to receive Treatment B were administered placebo containing drinkable water with […] flavor. Each study week the participants received 10 mL of their study medication in an amber glass bottle with dropper containing 200 droplets. […] The mood of the participants was also be measured using a questionnaire which evaluated going from very happy, relaxed, excited, not worried and fearful at all (1) to very sad, not relaxed and excited at all, extremely worried and fearful (5). This questionnaire was completed in the morning and in the evening.

[9] = test system: patients suffering from moderate to severe MDD; experiment: double-blind randomized multi-centre study, MADRS assessed by the clinical rater; type: in vivo, human
Protocol: Cognitive enhancement and suicidal thoughts were evaluated respectively according to the Montgomery-Asberg Depression Rating Scale (MADRS) item 6 and item 10, after 10 weeks of study treatment as assessed by the clinical rater. […] Remission rate of reduced ability to read/communicate is defined as a MADRS Item 6 total score at Baseline (Day 1)>3 to (end of) Week 10≤3 at Week 10 as assessed by the clinical rater. […] Change from baseline in total score on MADRS after the indicated period of study treatment as assessed by the clinical rater. […] Remission is defined as a MADRS total score ≤10 at the indicated period as assessed by the clinical rater. An international, double-blind, centrally randomized (stratified), multi-centre study in more than 400 patients suffering from moderate to severe MDD in up to 40 sites in the USA was conducted. […] Study visits were conducted 1, 2, 3, 4, 6, 8 and 10 weeks after study treatment initiation. Possible withdrawal effects were assessed 1 week after study treatment withdrawal. After 2, 3, 4, 6, and 10 weeks, patients were evaluated.

[10] = test system: MDD patients on antidepressant (partial responsive depression); experiment: analysis of 62 MDD patients treated with adjunctive low-dose pipamperone; type: in vivo, human
D4 receptor = biological target: T1, D4 receptor (Homo sapiens, UniProt P21917); conditions: cited from earlier work
T1 sequence (P21917 1-419): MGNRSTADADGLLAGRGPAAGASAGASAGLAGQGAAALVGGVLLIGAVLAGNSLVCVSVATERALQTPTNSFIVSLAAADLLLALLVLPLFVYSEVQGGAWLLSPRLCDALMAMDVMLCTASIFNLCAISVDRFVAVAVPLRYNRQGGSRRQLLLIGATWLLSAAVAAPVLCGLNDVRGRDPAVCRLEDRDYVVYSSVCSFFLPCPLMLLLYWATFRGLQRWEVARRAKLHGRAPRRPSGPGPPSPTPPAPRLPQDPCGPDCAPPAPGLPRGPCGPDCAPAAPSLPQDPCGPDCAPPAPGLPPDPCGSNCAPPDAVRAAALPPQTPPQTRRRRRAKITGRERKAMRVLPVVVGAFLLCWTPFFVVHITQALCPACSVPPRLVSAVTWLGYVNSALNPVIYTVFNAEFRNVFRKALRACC

H1 receptor = H1 receptor (Homo sapiens, UniProt P35367); conditions: cited from earlier work
mACh receptors = conditions: cited from earlier work
[11] = prematurely discontinued patients
[12] = in particular after 6 weeks, even more so after 10 weeks

Chain of H1 receptor (P35367 whole entry): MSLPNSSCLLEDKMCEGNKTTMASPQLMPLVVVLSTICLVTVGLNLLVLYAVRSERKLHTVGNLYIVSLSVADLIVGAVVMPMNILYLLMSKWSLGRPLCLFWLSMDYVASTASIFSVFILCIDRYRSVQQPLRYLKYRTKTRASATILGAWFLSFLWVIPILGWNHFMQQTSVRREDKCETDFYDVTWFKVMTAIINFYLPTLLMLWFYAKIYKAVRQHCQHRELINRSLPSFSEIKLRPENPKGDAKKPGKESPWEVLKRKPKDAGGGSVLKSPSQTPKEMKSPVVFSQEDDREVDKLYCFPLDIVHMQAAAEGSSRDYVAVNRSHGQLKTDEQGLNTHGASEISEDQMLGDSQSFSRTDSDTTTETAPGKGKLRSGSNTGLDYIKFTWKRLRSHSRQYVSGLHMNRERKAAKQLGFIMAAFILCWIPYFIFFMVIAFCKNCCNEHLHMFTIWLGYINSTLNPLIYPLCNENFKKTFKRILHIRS

In the case of `CN(C)CCCC1(c2ccc(F)cc2)OCc2cc(C#N)ccc21` (stereo not shown) [Citalopram, citalopram], the “Decreased Appetite” value ([1]; all patients) is reported as 5.7%, the Diarrhoea ([1]; all patients) is reported as 9.7% and the Nausea ([1]; all patients) is reported as 16%. The Somnolence ([1]; all patients) was 11.4%, the “Decreased Appetite” value [1, 11] was 9% and the Diarrhoea [1, 11] was 11%. It also gave a Nausea [1, 11] of 18%, a Somnolence [1, 11] of 16% and a Vomiting [1, 11] of 9%.

In the case of `NC(=O)C1(N2CCCCC2)CCN(CCCC(=O)c2ccc(F)cc2)CC1` [pipamperone, 1′-[3-(p-fluorobenzoyl)propyl]-[1,4′-bipiperidine]-4′-carboxamide], the MMSE score ([2]; PT1, after 3 weeks pipamperone 20 mg/day combined with 15 sessions tDCS 2 mA, 27 before treatment) is reported as 30, the MMSE total score ([2]; PT1, another 2 months after tDCS was terminated, pipamperone 20 mg/d continued) is reported as 30 /30 and the MMSE ([2]; PT2 (severe cognitive deterioration, 18/30 before), after 6 weeks of treatment) is reported as 17 /30. The MMSE ([2]; PT3 (28/30 before), after treatment) was 30 /30, the restored cognitive performance ([2]; PT3, continuous (6 months) intake of low dose pipamperone) was “sustained” and the insomnia [3] was “improvement”. For the same molecule, the “reduction of the clinical restlessness events” value [3] was 75%, the “number of clinical restlessness events at night after treatment” value ([3]; 4 before) was 1 and the “SUBJECTIVE COGNITIVE DECLINE: NON RESPONDER” value ([4]; 14 mg ad noctum add-on, 6 participants) was 17%. For the same molecule, the “SUBJECTIVE COGNITIVE DECLINE: RESPONDER” value ([4]; 14 mg ad noctum add-on, 6 participants, Fisher exact test 0.0006, p<0.05) was 50%, the “subjective cognitive function versus placebo” value ([4]; 14 mg, 14 days, add-on to SSRI/SNRI) was “statistical significant (p<0.05) improvement” and the “improvement of cognitive functioning compared with placebo” value ([4]; the two participants with high MADRS item 6 score (XR0 and WL4), 14 mg) was “highest improvement”. The “sleep quality compared with placebo” value [5] was “better quality of sleep”, the “Sleep-related impairments, pipamperone 14 mg vs placebo” value [6] was “no clear difference” and the “Karolinska Sleepiness Scale, pipamperone 14 mg vs placebo” value [7] was “no clear difference”. The “Mood, pipamperone 14 mg vs placebo” value [8] was “no clear difference”, the “cognitive enhancement rate (remission of reduced ability to read/communicate, MADRS item 6) compared to citalopram” value ([9]; after 10 weeks of treatment) was “superior” and the “cognitive function (MADRS item 6, change from baseline) compared to citalopram” value ([9]; after 10 weeks, 15 mg QD) was “Statistically significant superior effect; also recorded: statistically significant enhancement”. The “suicidal thoughts (MADRS item 10, change from baseline) compared to citalopram” value ([9]; after 10 weeks, 15 mg QD) was “Statistically significant superior effect; also recorded: significant reduction”, the “decrease of severity of major depressive disorder (MADRS total score) compared to citalopram” value [9, 12] was “superior decrease” and the “proportion of patients in remission of major depressive disorder (MADRS total score ≤10) compared to citalopram” value [9, 12] was “superior increase”. For the same molecule, the “Decreased Appetite” value ([1]; all patients) was 1.6%, the Diarrhoea ([1]; all patients) was 0.5% and the Nausea ([1]; all patients) was 7.7%. For the same molecule, the Somnolence ([1]; all patients) was 6.6%, the “side effects overall (treatment emergent adverse effects, TEAE) compared to citalopram” value ([1]; all patients and prematurely discontinued patients) was “low amount of side effects” and the “Decreased Appetite” value [1, 11] was 0%. For the same molecule, the Diarrhoea [1, 11] was 0%, the Nausea [1, 11] was 6% and the Somnolence [1, 11] was 8%. For the same molecule, the Vomiting [1, 11] was 0%, the “side effects in subjects who discontinued the trial prematurely” value [1, 11] was “significantly fewer side effects” and the “residual symptoms anhedonia and cognitive impairment” value ([10]; adjunctive 15 mg daily, MDD remittors) was “resolved”. For the same molecule, the “patients still responding to adjunctive treatment” value ([10]; after at least more than 1 year of treatment, n=53 of 62) was 85%, the “tolerability of the treatment” value ([10]; long-term adjunctive treatment) was “extremely good tolerability” and the “patients in sustained remission” value ([10]; printed as 'of these responders', n=25) was 40%. For the same molecule, the “cases that went into sustained remission after switch from existing adjunctive treatment” value ([10]; switched from quetiapine, amisulpride, risperidone or clozapine) was 6 out of these 8 cases, the “affinity for the D4 receptor over the D2 receptor” value (D4 receptor) was 15 fold and the “affinity for the H1 receptor” value (H1 receptor) was “low and likely insignificant”. For the same molecule, the “affinity for the mACh receptors” value (mACh receptors) was “low and likely insignificant”.
